In patent US8222296B2, “Conjugates comprising a GABA- or glycine compound, pharmaceutical compositions and combinations thereof and their use in treating CNS disorders” (Ramot at Tel-Aviv University Ltd., priority 2006, dated 2012):
Counter-ions that a name gives are not always drawn.

What was measured:
[1] = Stability of BIL-1022 in water and methanol; type: physicochemical; conditions: low pH (3-5), room temperature (20-25° C.)
Procedure: The stability of BIL-1022 was briefly studied. BIL-1022 is stable in water and methanol at low pH (3-5) at room temperature (20-25° C.).

[2] = Water content (Karl-Fisher titration) after sitting uncapped on the bench overnight; type: physicochemical; conditions: 0.15% vs. 0.16%
Procedure: Water content was measured using Karl-fisher titration.

CC(=O)Nc1ccc(OC(=O)CCCN)cc1 [BIL-1022, 4-acetamidophenyl 4-aminobutanoate hydrochloride]
stability in water and methanol [1]: stable | water content of the product upon sitting in vial (uncapped) on the bench overnight [2]: remained substantially unchanged
